# Experimental data as given in patent publication US10849865B2, “Method of reducing neuronal cell death with haloalkylamines” (THE UNIVERSITY OF MONTANA, priority 2013, dated 2020).
# “Also recorded” adds a separate entry of the source.
# Tests used:
# CCL2 = assay: Gene array analysis of cortical tissue after severe TBI: CCL2; conditions: 32 hours after the injury (treatment at 8 hours + 24 hours); versus uninjured controls
# Description: (§2) For experiments requiring TBI, a rat model was used. Male Wistar rats (350-500 g) were obtained from Charles River Laboratories (Wilmington, Mass.) and housed with a 12-hour light/dark cycle and ad libitum access to food and water. Severe TBI was induced using the lateral fluid percussion (LFP) procedure as previously described (Rau et al., 2012, J Trauma and Acute Care Surgery 73:S165). Briefly, a 5 mm trephination was made over the right hemisphere equidistant from the lambda and the bregma. Animals were given a fluid pulse to the brain at 1.9-2.3 atm of pressure for 20 msec. All animals experienced apnea and were manually ventilated until normal breathing occurred. […] Saline treated animals underwent the same tail vein injection procedure receiving only pre-warmed saline.
# (§3) This time point was chosen in an effort to detect possible gene changes that would affect the development of secondary damage.
# [1] = test system: α-1 and α-2 adrenergic receptors; conditions: with secondary α-2 antagonism; cited from earlier work
# calmodulin (CaM)/CaMKII = calmodulin (CaM)/CaMKII (Homo sapiens, UniProt P0DP23); conditions: cited from earlier work
# IL-1β = assay: Gene array analysis of cortical tissue after severe TBI: IL-1β; conditions: 32 hours after the injury (treatment at 8 hours + 24 hours); versus uninjured controls
# Description: as §2, §3
# [2] = test system: rat lateral fluid percussion injury (LFP) model of severe TBI; assay: Foot fault assessment after severe TBI (lateral fluid percussion); type: in vivo
# Description: Briefly, rats were set on an elevated grid. With each weight-bearing step, the paw may fall or slip off the wire grid. Each time the left forelimb (affected by damage to the right hemisphere) missed a placement on the wire rack it was recorded as a foot fault. The total number of steps (movement of each forelimb) that the rat used to cross the grid was counted, and the total numbers of foot faults for each forelimb was recorded.
# (§1) We selected the test dose for phenoxybenzamine based on current FDA approved levels. […] Assuming a typical adult weighs 70 kg, this represents 1.7 mg/kg body weight. Therefore, we selected a slightly lower, single, intravenous dose of 1 mg/kg body weight. This dose was administered at the clinically relevant time point of 8 hours after severe TBI. Therapeutic effectiveness was determined based on behavioral and cognitive outcomes.
# [3] = stuffy nose, mild drowsiness, blurred vision, and upset stomach; cited from earlier work
# α-1 receptors = conditions: 8 days after a single administration; cited from earlier work
# [4] = test system: rat lateral fluid percussion injury (LFP) model of severe TBI; assay: Morris water maze (MWM) cognitive function after severe TBI; type: in vivo
# Description: The Morris water maze (MWM) was used to assess the impact of phenoxybenzamine on cognitive function (learning and memory) following TBI. […] Pre-acclimation began on day 24 post-TBI. The training phase began on day 25 post-injury, and the probe trial was conducted on day 30 post-injury.
# [5] = test system: rat lateral fluid percussion injury (LFP) model of severe TBI; assay: Neurological severity scoring (NSS) after severe TBI (lateral fluid percussion); type: in vivo
# Description: Assessments were conducted on days 1, 7, 14, 21, and 30 by a blinded observer. Animals were scored from 0-16 with 0 indicating no impairment, and 16 indicating maximal impairment. Scoring criteria for a severe TBI was 16-10, a moderate TBI was 9-5 and a mild TBI was 4-1. Animals scoring and NSS of 9 or less on day 1 were identified as having a moderate/mild injury and were excluded.
# as §1
# MyD88 = assay: Gene array analysis of cortical tissue after severe TBI: MyD88; conditions: 32 hours after the injury (treatment at 8 hours + 24 hours); versus uninjured controls
# Description: as §2, §3
# [6] = test system: rat hippocampal slice cultures exposed to oxygen-glucose deprivation (OGD); assay: Rat hippocampal slice culture oxygen-glucose deprivation (RHSC-OGD) model, propidium iodide staining; type: cell-based
# Description: All experimental animal procedures were approved by the University of Montana Institutional Animal Care and Use Committee in accordance with National Institutes of Health guide for the care and use of Laboratory animals (NIH Publications No. 8023). Hippocampal slice cultures were prepared from the brains of 7-day-old Sprague-Dawley rat pups as previously described (Selkirk et al., 2005, Eur J Neur 21:2291). After 7 days in culture, slices were exposed to oxygen-glucose deprivation (OGD). A glucose free balanced salt solution (BSS) composed of 120 mM NaCl, 5 mM KCl, 1.25 mM NaH2PO4, 2 mM MgSO4, 2 mM CaCl2, 25 mM NaHCO3, 20 mM HEPES, 25 mM sucrose; pH 7.3 was bubbled for one hour with 5% CO2/95% N2 at 10 L/hour. Slices were washed 6 times in deoxygenated SBSS to remove residual glucose, transferred into deoxygenated SBSS, and placed in a 37° C. chamber (Pro-Ox) with an oxygen feedback sensor that maintained gas levels at 0.1% O2, 5% CO2, 94.4% Nitrogen for 60 min. After OGD, the slices were immediately transferred back into pre-warmed Neurobasal media (containing B27 without anti-oxidants) under normal oxygen conditions. […] Neuronal damage was determined by staining slices with propidium iodide (PI; Molecular Probes, Eugene, Oreg.) and quantifying the relative fluorescence intensity (excitation 540/emission 630) using ImagePro Plus software (Media Cybernetics, Silver Springs, Md.). Propidium iodide […] was added to the media at a concentration of 2 μM (Noraberg et al., 1999, Brain Research Protocols 3:278), 4 hours prior to OGD. Images were taken of the hippocampal slices prior to OGD to establish baseline fluorescence. After OGD, slices were placed in normal media containing 2 μM PI and imaged again at 24 hours post-OGD using fluorescence optics with an Olympus IMT-2 microscope and a Hamamatsu camera. The total fluorescent intensity in each slice was determined using ImagePro Plus software (Media Cybernetics, Silver Springs, Md.) and all values were expressed as the percent change from untreated slices exposed to OGD.
# [7] = test system: α-1 and α-2 adrenergic receptors; conditions: following intravenous administration; cited from earlier work
# [8] = 1 mg/kg body weight, over 30 days after TBI
# [9] = 1 mg/kg i.v. 8 hours after severe TBI, 24 hours or 7 days after the TBI
# [10] = administered 8 hours after TBI, probe trial day 30 post-injury
compound,measurement,setting,value
CC(COc1ccccc1)N(CCCl)Cc1ccccc1 (stereo not shown) [phenoxybenzamine],CCL2 expression in cortical tissue after severe TBI,CCL2,no significant increase; also recorded: did not differ from uninjured controls
same,α-1 adrenergic antagonism,[1],potent α-1 adrenergic antagonist
same,inhibition of CaM/CaMKII activity,calmodulin (CaM)/CaMKII,potent inhibitor
same,IL-1β expression in cortical tissue after severe TBI,IL-1β,no significant increase; also recorded: did not differ from uninjured controls; also recorded: did not have a significant increase
same,"behavioral function, foot fault assessments (FIG. 3B)",[2]; [8],significantly improved behavioral function
same,"foot fault scoring, difference from saline treated animals",[2]; [9],no significant differences
same,side effects,[3],minimal
same,α-1 receptors recovered,α-1 receptors,50%
same,learning and memory after severe TBI (FIG. 4),[4]; Morris water maze latency and target quadrant time,significantly improved learning and memory
same,MWM learning compared to un-injured sham controls,"[4]; administered 8 hours after TBI, any of the training days",not significantly different from the un-injured sham control animals
same,MWM probe trial compared to un-injured sham controls,[4]; [10],did not differ from un-injured sham controls
same,"MWM probe trial, time spent searching the target quadrant",[4]; [10],approximately 28%
same,"behavioral function, neurological severity score (FIG. 3A)",[5]; [8],significantly improved behavioral function
same,"NSS, difference from saline treated animals",[5]; [9],no significant differences
same,MyD88 expression in cortical tissue after severe TBI,MyD88,no significant increase; also recorded: did not differ from uninjured controls; also recorded: equivalent to uninjured controls
same,prevention of neuronal death from OGD (propidium iodide fluorescence),"[6]; 100 μM added at 2, 4, and 8 hours post-OGD",prevented neuronal death from OGD in all regions of the hippocampus
same,prevention of neuronal death from OGD (propidium iodide fluorescence),[6]; 100 μM added at 16 hours post-OGD,prevented neuronal death only in the CA1 region of the hippocampus
same,neuroprotection when delivered after OGD (FIG. 2),[6]; delivered up to 16 hours after OGD,significant neuroprotection
same,time to peak effect of receptor antagonism,[7],approximately 1 hour
